Laboratory results from ChEMBL document CHEMBL1157423, “Structural and stereochemical studies of alpha-methylene-gamma-lactone-bearing cembrane diterpenoids from a south china sea soft coral Lobophytum crassum” (2008).

Tests used:
[1] = system: P388; test: Cytotoxicity against mouse P388 cells at 10 uM/L; assay type: functional; conditions: read-out: GI
[2] = system: A549; test: Cytotoxicity against human A549 cells at 10 uM/L; assay type: functional; conditions: read-out: GI

SMILES | inhibition of growth at 10 µM [1] | inhibition of growth at 10 µM [2]
C=C1C(=O)O[C@H]2C/C(C)=C/CC/C(C)=C/CC/C(CO)=C/C[C@H]12 [3-DEHYDROXYLPRESINULAROLIDE B] | 100% | 95.7%
C=C1C(=O)O[C@@H]2[C@@H]1C/C=C(\CO)CC/C=C(\C)CC/C=C(\C)[C@H]2O [PRESINULAROLIDE B] |  | 64%
C=C1C(=O)O[C@@H]2[C@@H]1C[C@H]1O[C@]1(CO)CC/C=C(\C)CC/C=C(\C)[C@H]2O [SINULAROLIDE B] | 100% | 
C=C1C(=O)O[C@@H]2[C@@H]1C[C@H]1O[C@]1(CO)CC/C=C(\C)CC/C=C(\C)[C@@H]2O [SINULAROLIDE C] | 63.8% | 
